Results: patent US12187706B2, “NLRP3 modulators” (INNATE TUMOR IMMUNITY, INC., priority 2019, dated 2025)

molecular target: T1, NLRP3 (Homo sapiens, UniProt Q96P20); experiment: Measurement of IL-1β production in PMA-differentiated THP-1 cells (NLRP3 hIL1B); type: cell-based
T1 construct: host or cells: PMA-differentiated THP-1 cells
Method: Measurement of IL-1β Production in PMA-Differentiated THP-1 Cells
THP-1 cells were purchased from the American Type Culture Collection and sub-cultured according to instructions from the supplier. Prior to experiments, cells were cultured in RPMI 1640 containing 10% heat inactivated FBS, penicillin (100 units/ml) and streptomycin (100 μg/ml), and maintained in log phase prior to experimental setup. Prior to the experiment THP-1 were treated with PMA (Phorbol 12-myristate 13-acetate) (10 μg/ml) for 24 hours. The day of the experiment the media was removed and attaching cells were treated with trypsin for 2 minutes, cells were then collected, washed with PBS (phosphate buffer saline), spin down, resuspended in 2% heat inactivated FBS with RPMI at a concentration of 1×10^6 cells/ml, and 100 μl was plated in a 96 well plate. Compounds were dissolved in dimethyl sulfoxide (DMSO) and added to the culture medium to achieve desired concentration (e.g. 100, 30, 10, 3, 1, 0.3 or 0.1 μM). Cells were incubated with compounds for 4 hours. Cell free supernatant was collected and the production of IL-1β was evaluated by ELISA. A vehicle only control was run concurrently with each experiment. Final DMSO concentration was 1%.
Measurement of IL-1β Production in PMA-Differentiated THP-1 Cells (Alternative Procedure)
THP-1 cells were purchased from the American Type Culture Collection and sub-cultured according to instructions from the supplier. Prior to experiments, cells were cultured in RPMI 1640 containing 10% heat inactivated FBS, penicillin (100 units/ml), streptomycin (100 μg/ml), HEPES (10 mM) and sodium pyruvate (1 mM) and maintained in log phase prior to experimental setup. Prior to the experiment, THP-1 cells were treated with PMA (Phorbol 12-myristate 13-acetate) (20 μg/ml) overnight. The day of the experiment, the media was removed and attached cells were treated with trypsin for 2 minutes, cells were then collected, washed with PBS (phosphate buffer saline), pelleted by centrifugation and resuspended in 2% heat inactivated FBS with RPMI at a concentration of 50,000 cells/well in a 384 well plate. Cell free supernatant was collected and the production of IL-1β was evaluated by ELISA. Compounds were dissolved in dimethyl sulfoxide (DMSO) and added to the culture medium to achieve desired concentration (e.g. 100, 30, 10, 3, 1, 0.3 or 0.1 μM). Cells were incubated with compounds for 2 hours. A vehicle only control was run concurrently with each experiment. Final DMSO concentration was 1%.
Measurement of IL-1β Production—hTRF Protocol (Second Alternative Procedure)
Serial dilutions of compounds in DMSO were added to low volume 384 well plates at 100 nl/well using an ECHO 550 acoustic dispenser (Labcyte) to achieve final starting concentration of 10 μM in assay.
THP-1 cells in RPMI (Gibco, 11875) media with 10% FBS at a density of 1×10^6 cell/ml in a T175 flask were treated with a final concentration of phorbol 12-myristate 13-acetate (PMA) (Sigma, P1585) of 50 ng/ml overnight at 37° C. at 5% CO2 for differentiation. Cells were harvested the next day after rinsing well with dPBS using 0.5% trypsin. A cell solution was prepared of 1×10^6 cells/ml for 50,000 cells in 50 μl/well in RPMI media with 2% FBS. Cells were plated using a multichannel pipette onto the compound dilutions in Greiner, 384 well, black clear bottom tissue culture treated plates (781090). The plates were incubated in 37° C. incubator at 5% CO2 for 2 hours.
After the 2 hour incubation, the cell plates were spun in the centrifuge for 5 minutes at 1200 rpm. Using the Felix (CyBio), 8 μl of the supernatant was transferred to 384 well, low volume, white proxy plates. (Perkin Elmer, 6008230). A human IL1beta hTRF kit was used to analyze the supernatant (CISBIO, 62HIL1BPEG). The kit instructions were followed for preparing the IL1Beta standard curve and then the antibodies from the kit were diluted 1:40 rather than 1:20 as kit instructed.

T1 sequence (Q96P20 whole entry): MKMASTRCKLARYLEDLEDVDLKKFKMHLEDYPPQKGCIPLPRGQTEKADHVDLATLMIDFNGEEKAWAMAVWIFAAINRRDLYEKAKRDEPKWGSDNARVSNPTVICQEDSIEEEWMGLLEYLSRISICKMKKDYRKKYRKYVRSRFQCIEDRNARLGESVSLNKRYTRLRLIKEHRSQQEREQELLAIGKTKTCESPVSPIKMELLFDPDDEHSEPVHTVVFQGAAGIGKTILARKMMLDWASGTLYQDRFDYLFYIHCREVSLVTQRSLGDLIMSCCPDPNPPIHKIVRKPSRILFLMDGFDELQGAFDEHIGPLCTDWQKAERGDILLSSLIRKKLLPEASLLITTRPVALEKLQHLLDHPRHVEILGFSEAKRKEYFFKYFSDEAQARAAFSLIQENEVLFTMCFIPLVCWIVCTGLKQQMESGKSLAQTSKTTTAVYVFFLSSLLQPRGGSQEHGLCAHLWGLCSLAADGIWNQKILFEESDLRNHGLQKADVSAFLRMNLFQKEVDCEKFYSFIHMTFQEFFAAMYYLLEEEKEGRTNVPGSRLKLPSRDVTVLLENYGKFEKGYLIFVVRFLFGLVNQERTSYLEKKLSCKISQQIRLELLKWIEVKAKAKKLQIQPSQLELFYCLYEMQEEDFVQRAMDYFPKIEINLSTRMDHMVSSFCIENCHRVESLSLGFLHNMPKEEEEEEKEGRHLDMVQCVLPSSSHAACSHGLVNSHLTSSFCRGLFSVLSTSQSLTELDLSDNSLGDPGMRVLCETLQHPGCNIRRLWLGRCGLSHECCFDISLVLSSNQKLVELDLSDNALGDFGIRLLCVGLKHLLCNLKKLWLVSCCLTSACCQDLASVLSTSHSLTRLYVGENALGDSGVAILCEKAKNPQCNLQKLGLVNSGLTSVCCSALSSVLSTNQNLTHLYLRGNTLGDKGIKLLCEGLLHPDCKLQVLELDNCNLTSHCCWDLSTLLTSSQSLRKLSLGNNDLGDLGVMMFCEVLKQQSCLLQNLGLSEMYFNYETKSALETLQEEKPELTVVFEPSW

Structure (SMILES)	EC50
Nc1nc(N[C@@H]2CCCC[C@@H]2O)c2ccc(-c3ccn[nH]3)cc2n1 [Example 68]	1100 nM
Nc1nc(NC[C@@H](O)CO)c2ccc(-c3ccn[nH]3)cc2n1 [Example 69]	1860 nM
Nc1nc(NC[C@H](O)CO)c2ccc(-c3ccn[nH]3)cc2n1 [Example 70]	800 nM
Nc1nc(NCc2ccno2)c2ccc(-c3ccn[nH]3)cc2n1 [Example 71]	640 nM
COCC(O)CNc1nc(N)nc2cc(-c3ccn[nH]3)ccc12 (stereo not shown) [Example 72]	530 nM
CC(C)(CO)CNc1nc(N)nc2cc(-c3ccn[nH]3)ccc12 [Example 73]	230 nM
Nc1nc(NC(CO)CO)c2ccc(-c3ccn[nH]3)cc2n1 [Example 74]	780 nM
Cn1cncc1CNc1nc(N)nc2cc(-c3ccn[nH]3)ccc12 [Example 75]	5520 nM
COCc1noc(CNc2nc(N)nc3cc(-c4ccn[nH]4)ccc23)n1 [Example 76]	760 nM
Nc1nc(NCC(F)F)c2ccc(-c3ccn[nH]3)cc2n1 [Example 78]	630 nM
Cc1cnc(CNc2nc(N)nc3cc(-c4ccn[nH]4)ccc23)cn1 [Example 80]	710 nM
Cc1noc(C)c1CNc1nc(N)nc2cc(-c3ccn[nH]3)ccc12 [Example 81]	1200 nM
NC(=O)CC(Nc1nc(N)nc2cc(-c3ccn[nH]3)ccc12)c1cccnc1 (stereo not shown) [Example 82]	3650 nM
CC(CO)(CO)Nc1nc(N)nc2cc(-c3ccn[nH]3)ccc12 [Example 83]	2410 nM
CNc1nc(N)nc2cc(-c3ccn[nH]3)ccc12 [Example 84]	280 nM
Nc1nc(NCCCCO)c2ccc(-c3ccn[nH]3)cc2n1 [Example 85]	230 nM
Nc1nc(NCCCCCO)c2ccc(-c3ccn[nH]3)cc2n1 [Example 86]	220 nM
Nc1nc(NCc2cnc[nH]2)c2ccc(-c3ccn[nH]3)cc2n1 [Example 87]	1630 nM
Nc1nc(NCC(F)(F)CO)c2ccc(-c3ccn[nH]3)cc2n1 [Example 88]	220 nM
CC(C)(O)CCNc1nc(N)nc2cc(-c3ccn[nH]3)ccc12 [Example 89]	460 nM
C[C@]1(O)CC[C@@H](Nc2nc(N)nc3cc(-c4ccn[nH]4)ccc23)CC1 [Example 90]	830 nM
CC(C)(CO)CCCNc1nc(N)nc2cc(-c3ccn[nH]3)ccc12 [Example 91]	1300 nM
COCCCNc1nc(N)nc2cc(-c3ccn[nH]3)ccc12 [Example 94]	180 nM
CCCCONc1nc(N)nc2cc(-c3ccn[nH]3)ccc12 [Example 95]	630 nM

Structure (SMILES)	EC50
COCCNc1nc(N)nc2cc(-c3ccn[nH]3)ccc12 [Example 102]	210 nM
CCOCCNc1nc(N)nc2cc(-c3ccn[nH]3)ccc12 [Example 103]	370 nM
Nc1nc(N[C@@H]2CCCOC2)c2ccc(-c3ccn[nH]3)cc2n1 [Example 104]	390 nM
Nc1nc(NC2CCCOC2)c2ccc(-c3ccn[nH]3)cc2n1 (stereo not shown) [Example 105]	1980 nM
Nc1nc(NCC#CCO)c2ccc(-c3ccn[nH]3)cc2n1 [Example 106]	500 nM
Nc1nc(Nc2ccccc2)c2ccc(-c3ccn[nH]3)cc2n1 [Example 111]	400 nM
Nc1nc(Nc2cn[nH]c2)c2ccc(-c3ccn[nH]3)cc2n1 [Example 112]	240 nM
Nc1nc(Nc2ccon2)c2ccc(-c3ccn[nH]3)cc2n1 [Example 113]	2230 nM
Nc1nc(Nc2cnoc2)c2ccc(-c3ccn[nH]3)cc2n1 [Example 114]	370 nM
Nc1nc(Nc2ccn(CCO)n2)c2ccc(-c3ccn[nH]3)cc2n1 [Example 115]	18000 nM
Nc1nc(Nc2cc(CCO)[nH]n2)c2ccc(-c3ccn[nH]3)cc2n1 [Example 116]	500 nM
Nc1nc(NCCc2ccccn2)c2ccc(-c3cc[nH]n3)cc2n1 [Example 119]	490 nM
Nc1nc(N2CCCOCC2)c2ccc(-c3cc[nH]n3)cc2n1 [Example 120]	680 nM
Nc1nc(N[C@@H]2CCOC2)c2ccc(-c3cc[nH]n3)cc2n1 [Example 121]	1850 nM
Nc1nc(NCCc2ccccn2)c2c(F)cc(-c3cc[nH]n3)cc2n1 [Example 122]	1110 nM
Nc1nc(N2CCCOCC2)c2c(F)cc(-c3cc[nH]n3)cc2n1 [Example 123]	2860 nM
Nc1nc(NCc2cc[nH]n2)c2c(F)cc(-c3cc[nH]n3)cc2n1 [Example 124]	600 nM
Nc1nc(NCCO)c2c(F)cc(-c3cc[nH]n3)cc2n1 [Example 126]	760 nM
Nc1nc(N[C@@H]2CCOC2)c2c(F)cc(-c3cc[nH]n3)cc2n1 [Example 127]	1220 nM
Nc1nc(NCc2cncnc2)c2c(F)cc(-c3cc[nH]n3)cc2n1 [Example 128]	830 nM
Nc1nc(NCc2cc[nH]n2)c2c(Cl)cc(-c3cc[nH]n3)cc2n1 [Example 129]	370 nM
COc1cc(-c2cc[nH]n2)cc2nc(N)nc(NCCO)c12 [Example 131]	5610 nM
COc1cc(-c2cc[nH]n2)cc2nc(N)nc(NCc3cc[nH]n3)c12 [Example 132]	2180 nM
COc1cc(-c2cc[nH]n2)cc2nc(N)nc(N[C@@H]3CCOC3)c12 [Example 133]	650 nM

Structure (SMILES)	EC50
COc1cc(-c2cc[nH]n2)cc2nc(N)nc(NCCc3ccccn3)c12 [Example 134]	1740 nM
COc1cc(-c2cc[nH]n2)cc2nc(N)nc(NCc3cncnc3)c12 [Example 135]	1440 nM
Cc1cc(-c2cc[nH]n2)cc2nc(N)nc(NCc3cncnc3)c12 [Example 136]	1060 nM
Cc1cc(-c2cc[nH]n2)cc2nc(N)nc(NCc3cc[nH]n3)c12 [Example 137]	170 nM
Nc1nc(N[C@@H]2COCC[C@H]2O)c2ccc(-c3ccn[nH]3)cc2n1 [Example 138]	2140 nM
CN1CC[C@H](Nc2nc(N)nc3cc(-c4ccn[nH]4)ccc23)C1 [Example 139]	1770 nM
Nc1nc(NCCOCCO)c2ccc(-c3ccn[nH]3)cc2n1 [Example 140]	1020 nM
Nc1nc(NCc2cccnn2)c2ccc(-c3ccn[nH]3)cc2n1 [Example 142]	510 nM
Cc1cc(C)c(CNc2nc(N)nc3cc(-c4ccn[nH]4)ccc23)c(=O)[nH]1 [Example 143]	1230 nM
Nc1nc(NCc2cccnc2)c2ccc(-c3ccn[nH]3)cc2n1 [Example 144]	90 nM
Cn1cnc(CNc2nc(N)nc3cc(-c4ccn[nH]4)ccc23)c1 [Example 146]	8480 nM
Nc1nc(NCc2cn[nH]c2)c2ccc(-c3ccn[nH]3)cc2n1 [Example 147]	260 nM
Nc1nc(NCCc2cnc[nH]2)c2ccc(-c3ccn[nH]3)cc2n1 [Example 148]	510 nM
Nc1nc(NCc2ccc(Cl)cn2)c2ccc(-c3ccn[nH]3)cc2n1 [Example 151]	650 nM
Nc1nc(NCCc2cccnc2)c2ccc(-c3ccn[nH]3)cc2n1 [Example 153]	420 nM
Nc1nc(N[C@H]2C[C@H](O)C2)c2ccc(-c3ccn[nH]3)cc2n1 [Example 154]	160 nM
Nc1nc(NCc2cocn2)c2ccc(-c3ccn[nH]3)cc2n1 [Example 155]	490 nM
Nc1nc(NCc2cccc3[nH]ncc23)c2ccc(-c3ccn[nH]3)cc2n1 [Example 156]	440 nM
Nc1nc(NCCN2CCOCC2)c2ccc(-c3ccn[nH]3)cc2n1 [Example 157]	1320 nM
Nc1nc(N[C@H]2C[C@@H](O)C2)c2ccc(-c3ccn[nH]3)cc2n1 [Example 158]	1590 nM
Nc1nc(N[C@H]2CC[C@@H](O)C2)c2ccc(-c3ccn[nH]3)cc2n1 [Example 159]	430 nM
COc1cccc(CNc2nc(N)nc3cc(-c4ccn[nH]4)ccc23)n1 [Example 160]	650 nM
